Here are results for eleven compounds from PubChem BioAssay (NCI).

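Values below derive from 48-hour exposures of cells grown in 96-well plates, with endpoints linearly interpolated between the two concentrations bracketing the appropriate inhibition level. GI50 is the concentration that inhibits growth by half. TGI: concentration producing complete growth inhibition.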

Some test systems named below: A498 renal; CAKI-1 renal; HCT-116 colon; NCI-H23 lung; NCI-H460 lung; RPMI-8226 leukemia; SF-268 CNS; SF-295 CNS; SF-539 CNS; 786-0 renal.
Holding throughout (test): DTP human tumour cell line panel, 48 h

With `C=C1C(=O)OC2C1CC1OC2C(C)CCC/C(C)=C\CCC1(C)O` (stereo not given), the TGI was determined as 60.3 µM in the experiment with A498 renal; 61.4 µM with CAKI-1 renal; 41 µM in the experiment with HCT-116 colon; 29 µM with NCI-H23 lung; 60.9 µM in the experiment with NCI-H460 lung; 24.3 µM in the experiment with RPMI-8226 leukemia. The concentration for total growth inhibition (TGI) in the experiment on SF-268 CNS was 51.8 µM; in the experiment with SF-295 CNS it was 85.2 µM; in the experiment with SF-539 CNS, 48.7 µM.
On to `CN(CCc1ccccn1)C(=S)N/N=C/c1ccccn1`, for which the TGI was above 38.8 µM in the experiment with 786-0 renal; 1.3 µM in the experiment on A498 renal; 17.2 µM with CAKI-1 renal; 13.8 µM in the experiment on NCI-H23 lung; 2.07 µM in the experiment with NCI-H460 lung; 0.0424 µM in the experiment on RPMI-8226 leukemia. The results for the concentration for total growth inhibition (TGI) with SF-268 CNS, in the experiment on SF-295 CNS and with SF-539 CNS were above 100 µM, above 43.5 µM and 0.365 µM, respectively.
In the case of `C[N+](C)(C)c1nc(N)nc2c1ncn2C1OC(CO)C(O)C1O` (stereo not given), the total growth inhibition concentration (TGI) with 786-0 renal, in the experiment with A498 renal, in the experiment with CAKI-1 renal, in the experiment on HCT-116 colon, in the experiment on NCI-H23 lung and with NCI-H460 lung was above 100 µM each time. Besides, the TGI with RPMI-8226 leukemia, in the experiment on SF-268 CNS and in the experiment on SF-539 CNS was above 100 µM throughout.
With `Cc1ccc(N=Nc2cc(=O)[nH]c(=O)[nH]2)cc1C`, the TGI stood at 8.69 µM in the experiment with 786-0 renal; 36.9 µM in the experiment on A498 renal; 22.5 µM with HCT-116 colon; 41.6 µM with NCI-H460 lung; 14 µM in the experiment with RPMI-8226 leukemia; 42.6 µM in the experiment with SF-268 CNS. Further, the TGI amounted to 28.7 µM in the experiment on SF-295 CNS and 27.6 µM with SF-539 CNS.
For `O=C(c1ccccc1)c1ccc2c(c1)N=C(c1ccc(Cl)c(Cl)c1)CC(c1ccc3ccccc3c1)N2` (stereo not given), the TGI with A498 renal, in the experiment with CAKI-1 renal, with HCT-116 colon, with NCI-H23 lung, with NCI-H460 lung and in the experiment on RPMI-8226 leukemia was above 100 µM each time. The TGI in the experiment on SF-268 CNS, in the experiment with SF-295 CNS and in the experiment on SF-539 CNS was above 100 µM throughout.
As to `O.O=[Se](=O)(O)O.[NH-]C1CCCCC1[NH-].[Pt+2]` (stereo not given), the GI50 was 19.4 µM with A498 renal; 4.56 µM with CAKI-1 renal; 4.36 µM with HCT-116 colon; 10.9 µM with NCI-H23 lung; 3.77 µM with NCI-H460 lung; 1.12 µM with RPMI-8226 leukemia. The GI50 was 8.09 µM with SF-268 CNS, 15.4 µM with SF-295 CNS and 25.3 µM with SF-539 CNS. Moreover, the TGI is 97 µM with A498 renal; 78.6 µM in the experiment on CAKI-1 renal; above 100 µM with HCT-116 colon; above 94.9 µM with NCI-H23 lung; 38.7 µM in the experiment on NCI-H460 lung; above 31.6 µM with RPMI-8226 leukemia. The results for the TGI with SF-268 CNS, in the experiment on SF-295 CNS and with SF-539 CNS were above 100 µM, above 92.1 µM and above 100 µM, respectively.
As to `CC1Oc2c(c(O)cc3oc(=O)cc(-c4ccccc4)c23)C(=O)C1C` (stereo not given), the TGI in the experiment with A498 renal, in the experiment on CAKI-1 renal, with NCI-H23 lung, with NCI-H460 lung, in the experiment on RPMI-8226 leukemia and in the experiment on SF-268 CNS was above 100 µM each time. For the same compound, the TGI in the experiment on SF-295 CNS and with SF-539 CNS was above 100 µM throughout.
For `Cn1cnc([N+](=O)[O-])c1Sc1nncc2[nH]cnc12`, the TGI in the experiment with 786-0 renal, in the experiment with A498 renal, with CAKI-1 renal, in the experiment on HCT-116 colon, with NCI-H23 lung and in the experiment on RPMI-8226 leukemia was above 100 µM each time. Also, the concentration for total growth inhibition (TGI) in the experiment on SF-295 CNS and with SF-539 CNS was above 100 µM each time.
`Cc1cc(=O)[nH]c(S(=O)(=O)NC(=S)Nc2ccc(Br)cc2)n1`: the TGI in the experiment on 786-0 renal, with A498 renal, in the experiment with CAKI-1 renal, in the experiment on NCI-H23 lung, in the experiment with NCI-H460 lung and in the experiment on RPMI-8226 leukemia was above 100 µM each time. In addition, the TGI in the experiment with SF-268 CNS, in the experiment on SF-295 CNS and in the experiment with SF-539 CNS was above 100 µM in each case.
Turning to `COc1cccc2c1C(=O)c1c(O)c3c(c(O)c1C2=O)C[C@](O)(C(=O)CO)CC3OC1CC(N)C(OC2CCCCO2)C(C)O1` (stereo not given in full), the TGI was 0.766 µM in the experiment with A498 renal; 18.2 µM with CAKI-1 renal; 2.49 µM with HCT-116 colon; 1.97 µM in the experiment on NCI-H23 lung; 0.208 µM in the experiment with NCI-H460 lung; 5.12 µM with RPMI-8226 leukemia. Also, the concentration for total growth inhibition (TGI) in the experiment with SF-268 CNS was found to be 3.04 µM; in the experiment on SF-295 CNS, 0.672 µM; with SF-539 CNS, 1.41 µM.
Take `OCC(CO)CC1COc2ccccc2O1` (stereo not given): the total growth inhibition concentration (TGI) in the experiment with A498 renal, in the experiment with CAKI-1 renal, in the experiment on HCT-116 colon, with NCI-H23 lung, in the experiment with NCI-H460 lung and in the experiment with RPMI-8226 leukemia was above 10 µM in each case. For the same compound, the TGI in the experiment on SF-268 CNS, with SF-295 CNS and with SF-539 CNS was above 10 µM in each case.
